Measurements from paper PMC9131871, “Impact of Micropolymorphism Outside the Peptide Binding Groove in the Clinically Relevant Allele HLA-C*14 on T Cell Responses in HIV-1 Infection” (Journal of Virology, 2022).

These sequences were tested against HLA-C*14:03 (Homo sapiens, UniProt P10321, A176E/A330V/A35S/A97T/C350S/D114A/D33S/L171W/L180R/L218V/M285V/M309V/M331V/P208H/Q277E/Q291P/R121W/R243W/R45H/S123F/S297R/S48A/T329A/T363A/V319A) (assay: HLA stabilization assay on RMA-S-C1403 cells). Conditions: 100 μM peptide, 26°C 1 h then 37°C 3 h, MAb DT-9 staining, flow cytometry, triplicate assays.
Format: cell-based
Source text: We next sought to confirm the HLA-C*14:02/C*14:03 restriction of the HIV-1 peptides identified by LC-MS/MS. First, we tested their ability to bind to HLA-C*14:02 or HLA-C*14:03 using HLA stabilization assays. Of the 25 HIV-1 peptides, three Env peptides, Env SI8, Env AM11, and Env VM9, are located in variable regions V2 and V3. In addition, Pol AF10, Pol PF8, Pol VWL9, and Env YI9 are located in regions where high sequence variation is reported in the LANL database. Therefore, we excluded these peptides from further analysis. The other 18 peptides were synthesized and tested for binding to HLA-C*14:02/C*14:03 by analyzing their ability to stabilize surface HLA expression on TAP-defective RMA-S cell lines expressing HLA-C*14:02 (RMA-S-C1402) or HLA-C*14:03 (RMA-S-C1403). These RMA-S cell lines express equivalent levels of HLA-C*14:02 and HLA-C*14:03 on the cell surface at 26°C, and surface HLA expression declines to very low levels when the cells are warmed to 37°C in the absence of exogenously added stabilizing peptides (Fig. 2A). Peptide binding was determined by evaluating whether HLA-I expression was stabilized in the presence of 100 μM peptide.
FIG 2 HLA-C*14:02/14:03 binding of HIV-1 peptides eluted from NL4-3-infected .221-C1402 and .221-C1403 cells as assessed by HLA stabilization assay using RMA-S cell lines. (A) Histogram plots showing surface expression of HLA-C*14:02 or HLA-C*14:03 on RMA-S-C1402 or RMA-S-C1403 cells at 26°C and after cells cultured at 26°C had been warmed to 37°C for 3 h. MFI values of cells cultured at 26°C were 27.4 for HLA-C*14:02 and 28.1 for HLA-C*14:03. MFI values of cells cultured at 37°C for 3 h were 5.0 for HLA-C*14:02 and 6.54 for HLA-C*14:03. (B) Analysis of binding of 14 HIV-1 NL4.3 peptides identified by LC-MS/MS to HLA-C*14:02 (blue) or HLA-C*14:03 (red) as measured in HLA class I stabilization assays using RMA-S-C1402 or RMA-S-C1403 cells. (C) Analysis of binding of 9 additional variant peptides to HLA-C*14:02 (blue) or C*14:03 (red). For panels B and C, peptides were tested at a concentration of 100 μM. Results are plotted as percent surface HLA-I expression relative to that at 26°C, calculated as the ratio of the MFI of peptide-pulsed RMA-S-C1402 or RMA-S-C1403 cells to that of control (non-peptide-pulsed) cells kept at 26°C, multiplied by 100. Means and standard deviations (SDs) from triplicate assays are shown. Statistical analyses were performed by unpaired t test. The P values were corrected for multiple testing. *, P < 0.05 and q < 0.05; **, P < 0.01 and q < 0.03; ***, P < 0.001 and q < 0.005.
The relative affinity of peptide binding to HLA-C*14:02 and -C*14:03 was examined using RMA-S-C1402 and RMA-S-C1403 cells as previously described ([15]). Briefly, RMA-S cells were cultured at 26°C for 16 h, pulsed with peptides at 26°C for 1 h, and subsequently incubated at 37°C for 3 h. Staining of cell surface HLA-C molecules was performed with the HLA-C-reactive monoclonal antibody (MAb) DT-9 ([48]), a gift from Mary Carrington, NIH, and fluorescein isothiocyanate (FITC)-conjugated sheep anti-mouse IgG (Jackson ImmunoResearch). Staining data were acquired on a FACSCanto II instrument (BD Biosciences) and analyzed using FlowJo 10.7.1 software. Relative HLA expression was calculated as the ratio of the mean fluorescence intensity (MFI) of peptide-pulsed RMA-S-C1402 cells or RMA-S-C1403 cells to that of control (non-peptide-pulsed) cells kept at 26°C, multiplied by 100 to express the values for peptide-pulsed cells as a percentage of that for the control cells at 26°C.

Row | Sequence | binding to HLA-C*14:03 (stabilization of surface HLA expression)
1 | FMTKALGI [Tat FI8, HIV-1 NL4-3 Tat 38–45 peptide FMTKALGI] | did not exhibit detectable binding
2 | ASGYIEAEV [Pol AV9, HIV-1 NL4-3 Pol 795–803 peptide …] | did not exhibit detectable binding
3 | VYYDPSKDL [Pol VYL9, HIV-1 NL4-3 Pol 472–480 peptide …] | low
4 | FLGAAGSTM [Env FM9, HIV-1 NL4-3 Env 522–530 peptide …] | did not exhibit detectable binding
5 | RFDSRLAF [Nef RF8, HIV-1 NL4-3 Nef 184–191 peptide RFDSRLAF] | did not exhibit detectable binding
6 | FFREDLAF [Pol FF8, HIV-1 NL4-3 Pol 1–8 peptide FFREDLAF] | low

Same assay, conditions: peptide concentrations from 0.1 to 100 μM, 6 epitope peptides compared

Row | Sequence | relative affinity in hierarchy of peptide-HLA-C*14 binding (HLA-C*14:03)
7 | AFHHVAREL [Nef AL9] | lowest
8 | AFSPEVIPM [Gag AM9] | highest
